Results from patent publication US6015877A, “Compounds for inhibition of proteolysis” (President and Fellows of Harvard College, priority 1996, dated 2000).
Where two headings read alike, the source gives them in different places. Where no end group is shown, it is not given here. The star is where a group is joined. Farnesyl = CC(C)=CCC/C(C)=C/CC/C(C)=C/C*

Experiments:
[1] = test system: isoprenylated protein endoprotease; assay: Inhibition of the solubilized / partially purified enzyme by non-halomethyl ketone inhibitors; type: biochemical, bovine
[2] = target: T1, cysteine protease apopain (Homo sapiens, UniProt P42574); settings: cited from earlier work
T1 sequence (P42574 29-175 limits assumed): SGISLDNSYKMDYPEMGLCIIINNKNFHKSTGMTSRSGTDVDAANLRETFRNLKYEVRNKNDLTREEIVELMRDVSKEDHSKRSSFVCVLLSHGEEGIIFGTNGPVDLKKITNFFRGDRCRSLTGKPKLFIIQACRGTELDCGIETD
T1 sequence (P42574 176-277 limits assumed): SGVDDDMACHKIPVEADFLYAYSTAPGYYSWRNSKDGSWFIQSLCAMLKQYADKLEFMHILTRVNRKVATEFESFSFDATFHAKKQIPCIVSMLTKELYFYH

[3] = target: T2, cysteine protease ICE (interleukin-1β converting enzyme) (Homo sapiens, UniProt P29466); settings: cited from earlier work
T2 sequence (P29466 120-297 limits assumed): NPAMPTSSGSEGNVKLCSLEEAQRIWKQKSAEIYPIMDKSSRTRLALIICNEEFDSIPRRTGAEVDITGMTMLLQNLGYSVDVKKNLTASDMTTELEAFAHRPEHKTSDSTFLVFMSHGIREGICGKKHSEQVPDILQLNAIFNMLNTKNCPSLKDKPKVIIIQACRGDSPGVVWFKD
T2 sequence (P29466 317-404 limits assumed): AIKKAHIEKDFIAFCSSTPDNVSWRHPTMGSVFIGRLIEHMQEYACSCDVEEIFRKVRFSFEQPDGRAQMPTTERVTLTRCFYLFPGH

[4] = test system: second small proteolytic activity, apparent molecular mass approximately 60 kDa; assay: Inhibition of the second small peak of proteolytic activity (approximately 60 kDa) after gel filtration; type: biochemical, bovine
Source text: These properties of CHAPSO make it ideal, among the detergents tested, for the solubilization of the endoprotease. […] It should be noted that a second small amount of proteolytic activity was also found with an apparent molecular mass of approximately 60 kDa, which amounted to approximately 10% of the major peak, but which chromatographed at a smaller molecular size than the major peak. This smaller peak was not investigate further, for several reasons. Quantitatively, it is not significant. […] It also is no known if the smaller peak of activity i s comprised of an endoproteolytic activity or is simply made up of nonspecific proteases. […] All further studies described here will be relevant to the major solubilized peak of activity.

[5] = test system: isoprenylated protein endoprotease; assay: Inhibition of the isoprenylated protein endoprotease by halomethyl ketones (preincubation, 20-fold dilution, Kitz-Wilson); type: biochemical, bovine; settings: for Ki: read-out: K1
Procedure: A typical procedure of inhibition is given here to illustrate the details of this procedure. A CHAPSO-solubilized protein preparation (2.5 mg/mL) or a partially […] protein preparation (0.17 mg/mL) was incubated with chloromethyl ketone inhibitors at 37° C. for 30 minutes. Aliquots were removed at timed intervals and diluted with assay buffer E for the solubilized preparation of with assay buffer D for the partially purified protein preparation in 20-fold. The final protein and substrate concentrations were 0.12 mg/mL (or 8.5 μg of partially purified protein preparation per milliliter) and 2.0 μM, respectively, except as otherwise noted; the residual enzyme activity was assayed as described above. TPCK and BFC-CMK were characterized by kinetic measurements. The bimolecular rate constant Kinh /K1 and pseudo-first-order kinetic rate constant Kinh were obtained using the Kitz-Wilson method (Kitz & Wilson, 1962). According to Kitz-Wilson method, the irreversible modification of an enzyme by an active-site directed inhibitor is given by [drawing 9] where K1 =[E]·[I]/[E·I] and -d([E]+[E·I])/dt=Kinh [E·I]. [I] and [E] are inhibitor and enzyme concentrations at a certain time, respectively. Under conditions here [I]>>[Eo ], which is the enzyme concentration at time zero, [I] is constant. Under conditions where the enzyme-inhibitor solution is extensively diluted before the assay, a simplified equation 2 can be obtained as follows: […]
To further establish the specificity of the inactivation process, several commercially available haloketones were studies as putative inactivators of the endoprotease. The structures of these analogs are shown and their activities are shown in Table V. In these studies, the solubilized protein material was preincubated with a chloromethyl ketone inhibitor at 284 μM (unless otherwise noted) for 30 minutes; then 2.5-μL aliquots of the incubated solution were taken and diluted 20-fold for assay of the residual enzyme activity. […] Save for the dipeptide derivatives (ZGGFCMK and ZAPFCMK) derived from TPCK, the other halomethyl ketones tested are virtually inert.
FIG. 16(A) Time-dependent inhibition. 16B Kitz-Wilson plot (the upper panel) for the inhibition of the isoprenylated protein endoprotease by TPCK. The inhibition studies were carried out at 37° C. using the solubilized endoprotease preparation. Aliquote of the inhibitor-enzyme solution were taken at interval times and diluted by a factor of 20, and the enzyme activity was assayed as described in Methods. (B) (the lower panel) the concentration-dependent inhibition of the endoprotease by TPCK. The inhibition studies were carried out at 37° C. The crude CHAPSO-solubilized endoprotease preparations (0.12 mg/mL) were preincubated for 60 min in 50 μL of buffer E in the presence of 284 μM TPCK or TLCK with 6% DMSO and 2% 2-propanol. After the incubation, the reaction solution was diluted by a factor of 20, and the remaining enzyme activity of the inhibitor-enzyme solution was assayed as described in Methods. Data were represented in mean from duplicate runs.

[6] = test system: protease of bovine liver microsomal membranes (isoprenylated protein endoprotease); assay: Inhibition of proteolysis of [3H]-AFC-val-ile-ser by peptides, calf liver microsomes; type: biochemical
Procedure: As expected, the proteolysis of [^3 H]-AFC-val-ile-ser or [^3 H]-(SEQ ID NO: 1) was inhibited by the dipeptide substrate (AFC-val) and by the tripeptide substrate (AFC-val-ile). Incubation of 4 μM substrate along with either 20 μM of the dipeptide or tripeptide led to an approximately 50% diminution in substrate cleavage.

[7] = test system: protease of bovine liver microsomal membranes (isoprenylated protein endoprotease); assay: Proteolysis of N-[3H]acetyl isoprenylated peptide substrates by calf liver microsomal membranes (N-[3H]-AFC formation, HPLC)
[8] = test system: stereospecific proteolytic enzymatic activity in dog pancreatic microsomes; assay: Proteolysis of tetrapeptide substrates by dog pancreatic microsomes; type: biochemical; settings: extended incubation conditions
Procedure: A similar stereospecific proteolytic enzymatic activity was also found in dog pancreatic microsomes. Under extended incubation conditions, where 54% of the tetrapeptide substrate 1 was cleaved by these microsomes, no proteolysis of D-AFC-val-ile-ser 2 could be detected (<1%).

[9] = test system: isoprenylated protein endoprotease; settings: 425 ng partially purified protein preparation in 50 μL
[10] = solubilized endoprotease preparation, 37° C., Kitz-Wilson
[11] = Table 1, same enzyme preparation, average of two determinations ±S.D.
[12] = calf liver microsomal membranes
[13] = former measurement, different microsome preparation from a different animal

Compound: CC(C)C[C@H](NC(=O)[C@H]1O[C@@H]1C(=O)O)C(=O)NCCCCN=C(N)N (relative stereo) [E-64, N-[N-(L-3-trans-carboxyoxiran-2-carbonyl)-L-leucyl]agmatine]
- inhibition of the endoprotease (in words) ([1]; 0.5 mM): insensitive
- enzyme activity (%) detergent extract ([1]; inhibitor 0.11 mM, control 100): 113 ± 0%
- enzyme activity (%) partially purified ([1]; inhibitor 0.5 mM, control 100): 103 ± 4%
- inhibition of apopain (in words) [2]: not
- inhibition of ICE (in words) [3]: insensitive

Compound: c1cnc2c(c1)ccc1cccnc12 [1,10-.phi., N,N'-phenanthroline]
- inhibition of the endoprotease (in words) ([1]; 1 mM): not inhibited
- effect on the major (primary) solubilized peak of activity (in words) ([1]; CHAPSO-solubilized enzyme after gel filtration): without effect on the primary peak of activity
- enzyme activity (%) detergent extract ([1]; inhibitor 1 mM, control 100): 90 ± 10%
- inhibition of the smaller peak of proteolytic activity (in words) [4]: potently inhibited

Compound: NC(=O)CI [IAA, iodoacetamide]
- inhibition of the endoprotease (in words) ([1]; 0.4 mM): insensitive
- inhibition of apopain (in words) [2]: inhibited
- inhibition of ICE (in words) [3]: inactivated

Compound: Cc1ccc(S(=O)(=O)N[C@@H](Cc2ccccc2)C(=O)CCl)cc1 [TPCK, Nα-tosyl-L-phenylalamine chloromethyl ketone]
- enzyme activity (%) ([5]; 284 μM inhibitor, solubilized protein preincubated 30 minutes, diluted 20-fold, control 100): 43 ± 5%
- regeneration of enzyme activity after gel filtration chromatography and 24-h dialysis (in words) ([5]; enzyme preincubated with TPCK): not regenerated
- Ki [5]: ~1000 µM
- inhibition / inactivation of the endoprotease (in words) ([5]; solubilized endoprotease): inhibit the endoprotease well
- Kinh (s^-1) [5, 10]: (1.4 ± 0.6) × 10^-3 s^-1
- Kinh /K1 [5, 10]: 1.28 ± 0.1 M⁻¹ s⁻¹
- Ki [5, 10]: 1100 ± 500 µM
- inhibition of apopain (in words) [2]: not
- inhibition of ICE (in words) [3]: inactivated

Compound: AC-val-ile-ser: tetrapeptide substrate with the farnesyl moiety deleted (Ac-CVIS)
- inhibition of tetrapeptide substrate processing (in words) ([6]; 5-fold excess over tetrapeptide substrate): did not interfere with the processing of the substrate

Compound: N-Ac-S-all-trans-farnesyl-L-Cys-L-Val-L-Ile [AFC--Val--Ile (1)]
- diminution in substrate cleavage ([6]; 20 μM peptide, 4 μM [3H]-AFC-val-ile-ser substrate): approximately 50%
- Vmax [7, 11]: 57.7 ± 5 pmol/min/mg
- Km [7, 12]: 9.2 ± 0.21 µM
- Vmax [7, 12]: 58 ± 4.9 pmol/min/mg
- substrate activity (in words) [7, 12]: substrates for the enzyme
- Km [7, 13]: 12.6 µM
- Vmax [7, 13]: 65.6 pmol/min/mg

Compound: N-[^3 H]-acetyl-S-all-trans-farnesyl-D-Cys-L-Val-L-Ile-L-Ser [D-AFC-val-ile-ser]
- tetrapeptide cleaved (proteolysis) [8]: < 1%
- substrate activity (in words) [7, 12]: AFC formation did not occur

Compound: N-[^3 H]acetyl-S-farnesyl-L-cysteinyl-L-valyl-L-isoleucyl-L-methionine [AFC--Val--Ile--Met (9)]
- Km [9]: 0.65 ± 0.08 µM
- Vmax [9]: 1.96±0.07 nmol/(min-mg of protein)
- Km [7, 11]: 2.96 ± 0.35 µM
- Vmax [7, 11]: 126.3 ± 4.7 pmol/min/mg
- substrate activity (in words) [7, 12]: good substrate

Compound: N-acetyl-S-farnesyl-L-cysteine-L-val-L-ile-L-ser (Ac-C(Farnesyl)VIS) [substrate 1]
- tetrapeptide cleaved (proteolysis) [8]: 54%
- Km [7, 12]: 4.8 ± 0.6 µM
- Vmax [7, 12]: 0.236±0.008 nmol/min/mg protein
- substrate activity (in words) [7, 12]: substrates for the enzyme
